PMC10202292, “The exquisite specificity of human protein arginine methyltransferase 7 (PRMT7) toward Arg-X-Arg sites” (PLOS ONE, 2023)
Where two headings read alike, the source gives them in different places. No end group written: not given here.

Legend:
[1] = biological target: T1, GST-HsPRMT7 (Homo sapiens, UniProt Q9NVM4); assay: Michaelis-Menten kinetics of peptide substrate methylation (P81 phosphocellulose paper assay); format: biochemical; set-up: key to Vmax, Michaelis-Menten best-fit value, Fig7 / Vmax, Michaelis-Menten best-fit value, Fig8: Vmax expressed as cpm (averages of cycles 2–4); settings: for Vmax, times lower than RKR: experiments of Fig 7, relative to RKR peptide; for Vmax, Michaelis-Menten best-fit value, Fig7 / Km / Vmax, Michaelis-Menten best-fit value, Fig8: 60 min, 25°C; for change of Vmax after adding 130 mM KCl: with vs without 130 mM KCl (Fig 8, Table 2), in words
T1 construct: full-length human PRMT7 (residues 1–692); 34693; host or cells: E. coli BL21 DE3
T1 sequence (Q9NVM4 1-692): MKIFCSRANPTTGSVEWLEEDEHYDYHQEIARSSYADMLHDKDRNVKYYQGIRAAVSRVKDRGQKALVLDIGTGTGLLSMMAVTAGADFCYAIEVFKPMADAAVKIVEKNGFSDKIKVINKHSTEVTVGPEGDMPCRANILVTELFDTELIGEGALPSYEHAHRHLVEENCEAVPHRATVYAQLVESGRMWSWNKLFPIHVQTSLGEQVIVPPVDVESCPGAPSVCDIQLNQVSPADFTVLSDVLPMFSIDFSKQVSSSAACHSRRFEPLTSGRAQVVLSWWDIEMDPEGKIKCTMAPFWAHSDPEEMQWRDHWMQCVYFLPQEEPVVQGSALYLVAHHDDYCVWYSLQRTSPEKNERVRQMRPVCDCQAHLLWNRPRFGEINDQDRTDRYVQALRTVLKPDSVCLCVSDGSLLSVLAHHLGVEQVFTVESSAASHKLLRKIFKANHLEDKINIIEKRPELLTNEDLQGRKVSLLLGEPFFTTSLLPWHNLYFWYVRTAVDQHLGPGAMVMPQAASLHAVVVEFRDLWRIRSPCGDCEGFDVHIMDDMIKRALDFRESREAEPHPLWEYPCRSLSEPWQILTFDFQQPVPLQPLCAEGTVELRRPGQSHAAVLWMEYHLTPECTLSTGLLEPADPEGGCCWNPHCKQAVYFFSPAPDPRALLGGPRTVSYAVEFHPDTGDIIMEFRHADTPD
Procedure: (§1) In vitro methylation assays were performed with GST-HsPRMT7, the indicated substrate protein or peptide, and 1.4 μM S-adenosyl-L-[methyl-^3H]methionine ([^3H]-AdoMet; PerkinElmer cat no. NET155V), prepared from diluting a stock of 7.0 μM [^3H]-AdoMet (81.9 Ci/mmol, 1 mCi/mL in 9:1 10 mM H2SO4:EtOH, v/v) in 10 mM HCl. All reactions were performed using distilled water buffered with 50 mM potassium HEPES, pH 9.5 and 1 mM DTT, reaching a final reaction volume of 30 μL. The reactions were initiated by adding [^3H]-AdoMet to a final concentration of 0.14 μM. Control reactions (enzyme-only, substrate-only) contained distilled water instead of substrate or GST-HsPRMT7, respectively. After initiation with [^3H]-AdoMet, all reactions analyzed via P81 phosphocellulose filter paper assay were incubated in a water bath at 25°C unless otherwise indicated for the specified time periods and were terminated with 0.5 μL 100% (w/v) trifluoroacetic acid (TFA). P81 assays performed at t = 0 were individually terminated immediately following initiation. Samples analyzed via SDS-PAGE were incubated at 4°C for 24 hours and were quenched by adding 5x SDS sample loading buffer (250 mM Tris-HCl, pH 6.8; 10% SDS, 30% glycerol, 10% β-mercaptoethanol, 0.2% bromophenol blue), followed by heating at 97°C for 3 min.
(§2) In vitro methylation assays with GST-HsPRMT7, selected methyl-accepting substrates, and [^3H]-AdoMet were set up as described previously and performed in triplicate. Following incubation at 25°C unless otherwise indicated for the time periods specified, all samples were quenched with 0.5 μL 100% TFA and centrifuged at 9,300 g for 10 seconds in an Eppendorf centrifuge (Model 5417C). 1 cm^2 pieces of P81 phosphocellulose filter paper (LabAlley catalog no. 05-717-2A) were spotted with 25 μL from each reaction mixture and set to dry overnight. The following day, all filter paper pieces were washed three times with 50 mM sodium bicarbonate solution, pH 9.0, and dried again in liquid scintillation vials. After 5 mL of Safety Solve fluor (RPI industries) was added to each vial, [^3H] radioactivity in each sample was quantified via liquid scintillation counter (Beckman LS6500) for four total cycles at 5 minutes per sample. All data presented are expressed as averages of the cpm from cycles 2–4.
(§3) Statistical analyses were performed using the “Analyze Data” function on GraphPad Prism v.8.0.1. To determine statistical significance, unpaired homoscedastic two-tailed Student’s t tests were performed with significance level α = 0.05 with the relevant data. To obtain apparent km and Vmax values, kinetic data were analyzed by non-linear regression using the Michaelis-Menten equation.

[2] = biological target: T1, GST-HsPRMT7; assay: P81 phosphocellulose filter paper methylation assay with peptide substrates (cpm, end point and time course); format: biochemical; settings: for methylation activity compared with enzyme-only control: 0-120 min time course (Fig 6); for Difference between means ± SEM vs GST-HsPRMT7 + 10 uM Hs H2B (23-37), Fig5: 10 uM peptide, 4°C
Procedure: as §1, §2, §3

[3] = tested on: human PRMT7; settings: relative to unsubstituted peptide; cited from earlier work
Procedure: Comparatively, a previous study of ionic strength in human HEK293 cells estimates the intracellular concentration of potassium ions to be about 120–140 mM in human cells. As such, our results in Fig 7 led us to question whether this dramatic decrease in activity may be associated with a loss of either substrate-enzyme binding affinity or catalytic activity. || We confirm that human PRMT7 activity is quite sensitive to changes in the RXR target sequence in the substrate protein. […] The exquisite specificity of PRMT7 toward the basic RXR motif can be contrasted to the much broader speci ...

[4] = no added salt, 5 μg GST-HsPRMT7, 0.14 μM [3H]-AdoMet, GraphPad Prism fit
[5] = no added salt, 5 μg GST-HsPRMT7, 0.14 μM [3H]-AdoMet, GraphPad Prism fit, read-out: Km, Michaelis-Menten best-fit value, Fig7
[6] = no added salt, 5 μg GST-HsPRMT7, 0.14 μM [3H]-AdoMet, experiments of Fig 7, read-out: apparent km (binding affinities), Fig 7
[7] = no added salt, apparent km of peptide substrate, 5 μg GST-HsPRMT7, various peptide concentrations, 0.14 μM [3H]-AdoMet, pH 9.5, Michaelis-Menten fit, triplicates (Fig 8), read-out: km
[8] = no salt, 5 μg GST-HsPRMT7, 0.14 μM [3H]-AdoMet, GraphPad Prism fit
[9] = no salt, 5 μg GST-HsPRMT7, 0.14 μM [3H]-AdoMet, GraphPad Prism fit, read-out: Km, Michaelis-Menten best-fit value, Fig8
[10] = + 130 mM KCl, 5 μg GST-HsPRMT7, 0.14 μM [3H]-AdoMet, GraphPad Prism fit, read-out: Km, Michaelis-Menten best-fit value, Fig8
[11] = 10 μM peptide, 5 μg GST-HsPRMT7, 25°C, in words
[12] = +130 mM KCl, apparent km, 5 μg GST-HsPRMT7, various peptide concentrations, 0.14 μM [3H]-AdoMet, pH 9.5, Michaelis-Menten fit, triplicates (Fig 8), read-out: km
[13] = from Table 2, no added salt, response to reviewers, RGG peptide apparently = Mono R

Substance	Vmax, Michaelis-Menten best-fit value, Fig7 [1, 4]	Km [1, 5] [µM]	Km [1, 7] [µM]	Vmax, Michaelis-Menten best-fit value, Fig8 [1, 8]	Km [1, 9] [µM]	Km [1, 10] [µM]	Km [1, 12] [µM]	change of Vmax after adding 130 mM KCl [1]	further results
Ac-KKGGRERGGKKY-NH2 [synthetic RXR peptide with glutamate within the motif]	299.5	0.192	2.8	752.7	2.79				Vmax, times lower than RKR [1]: 5–6 times; Km [1, 6]: 2.8 µM
Ac-KKGGRGGGGKKY-NH2 [Mono R, synthetic peptide with a single arginine flanked by glycine and lysine residues]	262.6	0.223	1.4	993.4	1.42	0.28			Vmax, times lower than RKR [1]: 5–6 times; Km [1, 6]: 1.4 µM; PRMT7 methylation activity ([2]; 10 μM peptide, 5 μg GST-HsPRMT7, 0.14 μM [3H]-AdoMet, 20 h, 4°C (Fig 5), in words): barely detectable over the PRMT7-only control; methylation activity compared with enzyme-only control [2, 11]: not significantly greater than control; Difference between means ± SEM vs GST-HsPRMT7 + 10 uM Hs H2B (23-37), Fig5 ([2]; 20 h, n = 3, SEM): -4140 ± 625.1 cpm
Ac-KKGGRGRGGKKY-NH2 [synthetic peptide with an RGR motif flanked by glycine and lysine residues]	1036	0.682	0.7	2435	0.743	6.21	6.2	up to an approximately three-fold decrease	Vmax relative to the RGG peptide [1, 13]: about 2.5 fold; apparent km relative to the RGG peptide [1, 13]: about half; methylation activity (maximum value) ([2]; 10 μM peptide, 5 μg GST-HsPRMT7, 0.14 μM [3H]-AdoMet, 25°C, t = 120 min (Fig 6), approximate): about 800 cpm; decrease of PRMT7 activity relative to human H2B (23–37) ([2]; 10 μM peptide, 5 μg GST-HsPRMT7, 0.14 μM [3H]-AdoMet, 20 h, 4°C (Fig 5)): 4 to 5 fold; Difference between means ± SEM vs GST-HsPRMT7 + 10 uM Hs H2B (23-37), Fig5 ([2]; 20 h, n = 3, SEM): -2852 ± 662.1 cpm
Ac-KKGGRGRKGKKY-NH2 [synthetic RXR peptide with an additional lysine after the RGR motif]	1042	0.5	0.5	969.7	0.514	2.43	2.4	up to an approximately three-fold decrease	
Ac-KKGGRKRGGKKY-NH2 [synthetic RXR peptide with lysine within the motif]	1749	0.759	0.6	1716	0.553	6.88	6.9	up to an approximately three-fold decrease	
Ac-KKGKRGRGGKKY-NH2 [synthetic RXR peptide with an additional lysine before the RGR motif]	1553	0.895	0.6	1150	0.601	3.35	3.3	up to an approximately three-fold decrease	
KKDGKKRRKSRKESY [Xl H2B (23–37), synthetic peptide of amino acids 23–37 of Xenopus laevis histone H2B, containing 29-RRKSR-33]									GST-HsPRMT7 methylation activity ([2]; 10 μM peptide, 5 μg GST-HsPRMT7, 0.14 μM [3H]-AdoMet, 40 min, 25°C (Fig 3), in words): no significant methylation activity over background; methylation activity compared with enzyme-only control [2, 11]: low methylation activity but was significantly above control; methylation by human PRMT7 ([2]; 10 and 50 μM peptide, 5 μg GST-HsPRMT7, 25°C, 0-3 h time course (Fig 4), in words): methylated by human PRMT7, albeit at low levels; Mean of GST-HsPRMT7 + peptide, Fig3 ([2]; mean of n = 3, 10 μM peptide, 40 min, 25°C): 98.42 cpm; Difference between means ± SEM vs peptide only, Fig3 ([2]; n = 3, 10 μM peptide, 40 min, 25°C, SEM): 28.16 ± 17.00 cpm
R29K: human histone H2B (23–37) peptide with R29K substitution, from ref 11 (KKDGKKKKRSRKESY; not fully specified (N-terminus, C-terminus); UniProt P62807 24-38, looked up, variant R29K)									PRMT7 activity with substituted human histone H2B (23–37) peptides [3]: at least a two-thirds reduction
